Test results from US4612285A (priority 1982, dated 1986).
≈ marks a conversion by molar mass, not a printed value. Entries after “also recorded” stand apart in the source; their conditions may differ.

What was measured:
Stability in heating = format: physicochemical; conditions: vacuum concentration preferably controlled below 60° C.
Gram positive bacteria = experiment: Antibacterial action, Gram positive bacteria (summary); format: cell-based; conditions: summary in words
Text: (§1) (1) Antimicrobial properties:

Solubility = format: physicochemical
Aspergillus nigar = experiment: Antimicrobial properties (MIC); format: cell-based
Text: as §1

[1] = test system: Pseudomonas aeruginosa P-3; experiment: Antimicrobial properties (MIC); format: cell-based
Text: as §1

Shigella sonnai = experiment: Antimicrobial properties (MIC); format: cell-based
Text: as §1

[2] = test system: Bacillus subtilis PCI 219; experiment: Antimicrobial properties (MIC); format: cell-based
Text: as §1

Saccharomyces sake = experiment: Antimicrobial properties (MIC); format: cell-based
Text: as §1

[3] = test system: Klebsiella pneumonia PCI 602; experiment: Antimicrobial properties (MIC); format: cell-based
Text: as §1

Sarcina lutea PCI 1001 = experiment: Antimicrobial properties (MIC); format: cell-based
Text: as §1

Candida albicans = experiment: Antimicrobial properties (MIC); format: cell-based
Text: as §1

Escherichia coli NIHJ = experiment: Antimicrobial properties (MIC); format: cell-based
Text: as §1

[4] = test system: Staphylococcus aureus FDA 209P; experiment: Antimicrobial properties (MIC); format: cell-based
Text: as §1

Trichophyton ferrugineum = experiment: Antimicrobial properties (MIC); format: cell-based
Text: as §1

Salmonella typhimurium = experiment: Antimicrobial properties (MIC); format: cell-based
Text: as §1

Pyricularia oryzae = format: cell-based
[5] = test system: Ehrlich ascites carcinoma; experiment: Effect on Ehrlich ascites carcinoma in mice; format: in vivo, mice (ddY, male, 6 weeks age)
Description: Ehrlich ascites carcinoma, 2×10^6 cells, is inoculated into mice (ddY, male, 6 weeks age) intra peritoneally, administered awamycin as shown in the table, number of survival dates is observed.
Administered date is designates as 0th day at tumor inoculation date. Number of survival dates is shown as mean value in 4-5 mice in one group. Increased life span is calculated according to the following equation. [formula]

Sarcoma-180 = experiment: Effect on Sarcoma-180 in mice; format: in vivo, mice (ICR, male, 6 weeks age)
Text: Sarcome-180 (1×10^5 cells) is inoculated intra peritoneally in mice (ICR, male, 6 weeks age), administered the drug and the number of survival dates is observed.

yeast and fungi = experiment: Antimicrobial action, yeast and fungi (summary); format: cell-based; conditions: summary in words
Text: as §1

Gram negative bacteria = experiment: Antimicrobial action, Gram negative bacteria (summary); format: cell-based; conditions: summary in words
Text: as §1

COC(=O)C1C(O)C(C)C(O)C(C)/C=C(/C)C(=O)c2c(OC)c(C)c(O)c3c2C(=O)C(SC)=C(NC(=O)/C(C)=C\C=C\C(C)C(O)C(C)C1O)C3=O (stereo not shown) [awamycin]
Stability in heating (Stability in heating): stable in heating | antibacterial action against some Gram positive bacteria (Gram positive bacteria): shows antibacterial action against some of Gram positive bacteria; also recorded: active against Gram positive bacteria | Solubility (Solubility; alcohols (methanol, ethanol), chlorinated methanes, ketones, esters, benzene, toluene, dimethylformamide, dimethyl sulfoxide): soluble | Solubility (Solubility; diethyl ether): slightly soluble | Solubility (Solubility; hexane and petroleum ether): insoluble | Solubility (Solubility; water): slightly soluble | MIC (Aspergillus nigar): > 100 µg/mL | MIC [1]: > 100 µg/mL | MIC (Shigella sonnai): > 100 µg/mL | MIC [2]: 0.1 µg/mL (≈ 0.134 µM) | MIC (Saccharomyces sake): > 100 µg/mL | MIC [3]: > 100 µg/mL | MIC (Sarcina lutea PCI 1001): 0.05 µg/mL (≈ 0.0672 µM) | MIC (Candida albicans): > 100 µg/mL | MIC (Escherichia coli NIHJ): > 100 µg/mL | MIC [4]: 0.8 µg/mL (≈ 1.08 µM) | MIC (Trichophyton ferrugineum): > 100 µg/mL | MIC (Salmonella typhimurium): > 100 µg/mL | MIC (Pyricularia oryzae): > 100 µg/mL | Increased life span ([5]; 6.3 mg/kg/day, administering date 1-9): 73% | Number of survival date (median) ([5]; 6.3 mg/kg/day, administering date 1-9, control 22): 38 | Increased life span ([5]; 25 mg/kg/day, administering date 0, 1): 100% | Number of survival date (median) ([5]; 25 mg/kg/day, administering date 0, 1,, control 20): 40 | antitumor activity / growth inhibitory activity ([5]; Ehrlich ascites carcinoma, in words): has antitumor activity; also recorded: exhibits growth inhibitory activity | Increased life span (Sarcoma-180; 0.75 mg/kg/day, administering day 1-9): 64% | Number of survival dates (mean value) (Sarcoma-180; 0.75 mg/kg/day, administering day 1-9, control 14): 23 | Increased life span (Sarcoma-180; 1.5 mg/kg/day, administering day 1-9): 200% | Number of survival dates (mean value) (Sarcoma-180; 1.5 mg/kg/day, administering day 1-9, control 14): 42 | Increased life span (Sarcoma-180; 3.1 mg/kg/day, administering day 1-9): > 329% | Number of survival dates (mean value) (Sarcoma-180; 3.1 mg/kg/day, administering day 1-9, control 14): > 60 | Increased life span (Sarcoma-180; 6.3 mg/kg/day, administering day 1-9): 186% | Number of survival dates (mean value) (Sarcoma-180; 6.3 mg/kg/day, administering day 1-9, control 14): 40 | Increased life span (Sarcoma-180; 25 mg/kg/day, administering day 0, 1): 100% | Number of survival dates (mean value) (Sarcoma-180; 25 mg/kg/day, administering day 0, 1,, control 12): 24 | antitumor activity / growth inhibitory activity (Sarcoma-180; Sarcoma-180, in words): has antitumor activity; also recorded: exhibits growth inhibitory activity | action against yeast and fungi (yeast and fungi): no action | action against Gram negative bacteria (Gram negative bacteria): no action
